Results on 1 substance are retold here after PMC3788796, “The Antimicrobial Domains of Wheat Puroindolines Are Cell-Penetrating Peptides with Possible Intracellular Mechanisms of Action” (PLoS ONE, 2013).

For experiment [1], the system named is Saccharomyces cerevisiae (ATCC 287). Kind of experiment: MIC of the peptides against yeast cells. To be noted: PDB, 96-well two-fold dilution 250 to 2 µg/mL, 0.5–2×10^3 cells/mL, overnight 30°C, growth observed visually. Type of experiment: cell-based. Here is the method: Saccharomyces cerevisiae (ATCC 287) was grown in Potato Dextrose Broth (PDB) overnight at 30°C with shaking at 220 rpm. The cultures were vortexed vigorously and the cell suspension adjusted to 1–5×10^6 cells/mL with PDB (McFarland standard 0.5) and then diluted 1∶200 with PDB to a final concentration of 0.5–2×10^3 cells/mL [37]. The MIC assays were carried out in 96-well plates as described previously. Peptides (PuroA, Pina-M, Pina-W→F and PuroB) in 25 µL volumes were added to the first empty well and a two-fold dilution was carried out across each row with a starting peptide concentration of 250 µg/mL and a final one of 2 µg/mL. Test wells were subsequently inoculated with 75 µL yeast cells (0.5–2×10^3 cells/mL) and incubated overnight at 30°C. Negative control (no peptide) and positive control (fungicide Mycobutanil) wells were also prepared. The MIC was defined as the lowest concentration of the peptide required to inhibit fungal growth, observed visually.

Experiment [2] concerns S. cerevisiae cells. The experiment can be described thus: Propidium iodide uptake by yeast cells. Type of experiment: cell-based, Saccharomyces cerevisiae. To be noted: for % fluorescent cells (propidium iodide uptake): 1 h 30°C in PBS pH 7.4, PI 6 µg/mL 5 min, no-peptide control 5.7, average of 4 fields, two independent experiments. Here is the method:
S. cerevisiae was grown overnight at 30°C in 100 mL PDB and the cells collected by centrifugation and resuspended in Phosphate Buffered Saline (PBS: 137 mM NaCl, 2.7 mM KCl, 8 mM Na2HPO4, 1.46 mM KH2PO4; pH 7.4) to ∼1.5×10^7 cells/mL (OD600 = 0.6–0.8). 75 µL of the suspension was incubated with 25 µL of stock solutions of PuroA, Pina-M, Pina-W→F, PuroB and indolicidin (to give a final peptide concentration of 64, 125, 250 or 500 µg/mL), or with PBS (for no-peptide controls) for 1 h at 30°C, followed by staining with propidium iodide (PI) as described. PI stock solution (60 µg/mL) was prepared in MilliQ water and stored in dark at −20°C. It was diluted to 12 µg/mL before use, mixed 1∶1 with peptide-treated or untreated yeast cells (to final PI concentration 6 µg/mL), and the samples incubated in the dark for 5 min. A 10 µL aliquot of these was examined using a Nikon Eclipse 50 i fluorescence microscope with 561 nm excitation and 630/22 emission filter, at 400×magnification. The photomicrographs were taken under light and fluorescence for each field. Five randomly selected fields were recorded and scored for each sample.

Experiment [3] concerns E. coli cells. The following applies: data from previous work; cited from earlier work.

Several values for one entry are separate records, joined by “and”; a condition that tells them apart may be missing. Equal values may be shown once.

Consider “FPVTFRFFKFFKG-NH2 [Pina-W→F, PuroA-based peptide with all Trps substituted with Phe residues]”, for which the “MIC against S. cerevisiae” value in experiment [1] amounted to 250 mg/L. For the same substance, the “% fluorescent cells (propidium iodide uptake)” value was found to be 56.5% in experiment [2] (peptide 64 µg/mL), 72.3% in experiment [2] (peptide 125 µg/mL), 100% in experiment [2] (peptide 250 µg/mL) and 100% in experiment [2] (peptide 500 µg/mL). Besides, in experiment [2] (peptide below its MIC against yeast), the “cells permeable to propidium iodide at sub-MIC levels” value is listed as 56–72%. Further, in experiment [2] (peptide equal to or greater than its MIC for yeast), the “cells permeable to propidium iodide at MIC levels and higher” value is on record as 100%. Moreover, the “MIC against E. coli cells” value in experiment [3] is 32 mg/L and 32 ± 0 mg/L.
